Earlier results on two compounds are cited in patent US9572826B2, “Compositions for the treatment of hair loss” (priority 2008, dated 2017).

One series concerns hair loss. The note with it: human, in vivo.
The next series deals with alopecia areata. The note with it: intralesional injection.

For `CC(C)(C)NC(=O)[C@H]1CC[C@H]2[C@@H]3CC[C@H]4NC(=O)C=C[C@]4(C)[C@H]3CC[C@]12C` [Finasteride], in the series with hair loss, the “patients in whom effective” value is “approximately 50%”; the side effects reported result is “erectile dysfunction and gynecomastica”.

Consider `CC(C)(C)CC(=O)OCC(=O)[C@@]12OC(C)(C)O[C@@H]1C[C@H]1[C@@H]3CCC4=CC(=O)C=C[C@]4(C)[C@@]3(F)[C@@H](O)C[C@@]12C` [triamcinolone hexacetonide], for which, in the series on alopecia areata, the “injected sites with hair regrowth” value is 33 out of 34.
